Assay results taken from patent US20120276064A1, “METHODS AND COMPOSITIONS FOR REJUVENATION AND EXPANSION OF STEM CELLS” (priority 2011, published 2012).

Test system: MuSCs transplanted into tibialis anterior muscle
Experiment: Transplantation of cultured MuSCs into irradiated NOD/SCID mice, engraftment by bioluminescence imaging
Type: in vivo, mouse
Settings: young MuSCs cultured one week on soft hydrogel with 10 μM; 100 cells transplanted; one month
Procedure: MuSC transplantation. MuSCs were transplanted immediately following FACS isolation or after collection from cell culture directly into the tibialis anterior muscle of recipient mice as previously described. Cells from GFP/Luciferase or Myf5^nLacZl+/Luciferase mice were transplanted into gender-matched, hindlimb-irradiated NOD/SCID (Jackson) mice. NOD/SCID (2-4 months of age, median 2 months) mice were anesthetized with ketamine (2.4 mg per mouse) and xylazine (240 μg per mouse) by intraperitoneal injection then were irradiated by a single dose of 18 Gy administered to the hindlimbs, with the rest of the body shielded in a lead jig. Transplantation was performed within three days post-irradiation. In syngeneic transplant studies, cells from old C57BL/6 mice were transplanted into gender-matched, littermate old C57BL/6 mice (Jackson) following culture for one week on soft hydrogels. Specifically, old C57BL/6 MuSCs were infected with a GFP/Luciferase lentivirus added at day 2 of culture for 24 hours. Recipient old C57BL/6 mice were acutely injured by a single 10 μl intramuscular injection of notexin (10 μg/ml; Latoxan, France) two days prior to cell transplantation, but were not irradiated. Freshly isolated or cultured cells were counted by hemocytometer and resuspended at desired cell concentrations in PBS with 2.5% goat serum and 1 mM EDTA. Cells were collected from hydrogel cultures by incubation with 0.5% trypsin in PBS for 2 min at 37° C. and counted using a hemocytometer. Cells were transplanted by intramuscular injection into the tibialis anterior muscle in a 10 μl volume.
Tissue histology. Recipient tibialis anterior muscle tissues were prepared for histology as previously described to analyze GFP expression. Transverse sections were incubated with anti-laminin (Millipore, Billerica, Calif.), anti-GFP (Invitrogen) antibodies, and/or anti-β-galactosidase (Abcam, Cambridge, Mass.) with appropriate secondary antibodies (Invitrogen). Nuclei were counter-stained with Hoechst 33342 (Invitrogen). Images were acquired with an AxioPlan2 epi-fluorescent microscope (Carl Zeiss Microimaging, Thornwood, N.Y.) with Plan NeoFluar 10×/0.30NA or 20×/0.75NA objectives (Carl Zeiss) and an ORCA-ER digital camera (Hamamatsu Photonics, Bridgewater, N.J.). Digital images were captured in OpenLab software (Improvision, Waltham, Mass.) and assembled in Photoshop software (Adobe, San Jose, Calif.) with consistent contrast adjustments across all images from the same stain.
Bioluminescence imaging. Bioluminescence imaging was performed using a Xenogen-100 system, as previously described. Briefly, mice were anesthetized under isofluorane and 100 μL luciferin (0.1 mmol/kg; Caliper LifeSciences, Hopkinton, Mass.) in PBS was administered by intraperitoneal injection. Following luciferin administration, images were acquired every minute for 15 min. Images acquired at 12 min post-luciferin injection were used for analysis. Digital images were recorded and analyzed using Living Image software (Caliper LifeSciences). Images were analyzed with a consistent region-of-interest (ROI) placed over each hindlimb to calculate a bioluminescence signal. A bioluminescence signal value of 80,000 photons/s was used to define a engraftment threshold, as this level corresponds to the histological detection of one or more GFP^+ myofiber (see FIG. 8A). BLI imaging was performed one month post-transplant unless otherwise stated.
MuSC culture and treatment. Following isolation, MuSCs were pelleted and resuspended into myogenic cell culture medium containing DMEM/F10 (50:50), 15% FBS, 2.5 ng/ml bFGF, and 1% penicillin/streptomycin. MuSCs were seeded at 1000 cells per well (24-well plate size wells, 2.0 cm^2 surface area) on laminin-tethered hydrogels of either 12 kPa (soft) or ˜10^6 kPa (rigid) rigidities. Cells were maintained at 37° C. in 5% CO2. Media was changed daily. […]

C[S+]([O-])c1ccc(-c2nc(-c3ccncc3)c(-c3ccc(F)cc3)[nH]2)cc1 (stereo not shown) [SB203580]
Transplant engraftment efficiency (in words): improves the transplant engraftment efficiency
